Data published in ChEMBL document CHEMBL1129498, “Azole endothelin antagonists. 2. Structure-activity studies” (J Med Chem, 1996).
Values belong to the compound of their own block, whether it stands above or below them.

Legend:
[1] = biological target: T1, Endothelin receptor type B (Sus scrofa, UniProt P35463); test: Inhibitory activity was evaluated against ET- B Binding to Endothelin B receptor from porcine cerebellar membranes
T1 sequence (P35463 whole entry): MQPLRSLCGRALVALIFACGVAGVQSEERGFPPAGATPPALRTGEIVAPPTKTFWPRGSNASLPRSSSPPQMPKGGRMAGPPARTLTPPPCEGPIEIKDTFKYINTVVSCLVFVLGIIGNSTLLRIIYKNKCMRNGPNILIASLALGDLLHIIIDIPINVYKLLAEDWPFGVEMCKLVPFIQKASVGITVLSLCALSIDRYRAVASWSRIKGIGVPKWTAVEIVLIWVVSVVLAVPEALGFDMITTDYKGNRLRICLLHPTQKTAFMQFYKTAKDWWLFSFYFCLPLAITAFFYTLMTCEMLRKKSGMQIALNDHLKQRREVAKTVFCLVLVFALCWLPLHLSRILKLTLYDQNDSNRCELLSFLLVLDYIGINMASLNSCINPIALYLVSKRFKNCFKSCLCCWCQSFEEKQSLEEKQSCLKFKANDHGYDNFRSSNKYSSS

Endothelin-1 receptor = biological target: T2, Endothelin-1 receptor (Rattus norvegicus, UniProt P26684); test: Inhibitory activity was evaluated against ET- A Binding to Endothelin A receptor in MMQ cell homogenates; assay type: cell-free
T2 sequence (P26684 whole entry): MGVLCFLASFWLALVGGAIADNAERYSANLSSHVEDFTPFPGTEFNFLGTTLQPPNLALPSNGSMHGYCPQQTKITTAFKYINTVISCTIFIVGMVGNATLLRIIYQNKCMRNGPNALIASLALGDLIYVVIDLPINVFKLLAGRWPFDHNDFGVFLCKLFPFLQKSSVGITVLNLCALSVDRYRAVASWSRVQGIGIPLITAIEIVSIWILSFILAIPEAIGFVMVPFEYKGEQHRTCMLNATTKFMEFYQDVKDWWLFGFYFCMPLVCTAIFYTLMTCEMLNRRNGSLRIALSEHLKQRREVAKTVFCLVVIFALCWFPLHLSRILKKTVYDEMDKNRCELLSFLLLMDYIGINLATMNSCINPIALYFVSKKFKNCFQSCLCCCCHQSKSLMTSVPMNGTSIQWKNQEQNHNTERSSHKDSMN

Structure (SMILES): CCn1cc(C[C@@H](NC(=O)[C@H](CC(C)C)NC(=O)NC2CCCCC2)c2nc(C(=O)O)c(C)o2)c2ccccc21
IC50 [1]: > 100 µM

Structure (SMILES): Cc1[nH]c([C@@H](Cc2cn(C)c3ccccc23)NC(=O)[C@H](CC(C)C)NC(=O)NC2CCC(C)CC2)nc1C(=O)O (stereo partly drawn)
IC50 [1]: 80 µM | IC50 (Endothelin-1 receptor): 0.141 µM

Structure (SMILES): Cc1oc([C@@H](Cc2cn(C)c3ccccc23)NC(=O)[C@H](CC(C)C)NC(=O)N2CCCCCC2)nc1C(=O)O
IC50 [1]: > 100 µM | IC50 (Endothelin-1 receptor): 0.62 µM

Structure (SMILES): COC(=O)C1(NC(=O)N[C@@H](CC(C)C)C(=O)N[C@H](Cc2cn(C)c3ccccc23)c2nc(C(=O)O)c(C)o2)CCCCC1
IC50 [1]: > 90 µM | IC50 (Endothelin-1 receptor): 0.12 µM

Structure (SMILES): Cc1oc([C@@H](Cc2cn(C)c3ccccc23)NC(=O)[C@H](CC(C)C)NC(=O)NC2CCC(C)CC2)nc1C(=O)O (stereo partly drawn)
IC50 [1]: > 100 µM

Structure (SMILES): Cc1oc([C@@H](Cc2cn(C)c3ccccc23)NC(=O)[C@H](CC(C)C)NC(=O)NC2C3CC4CC(C3)CC2C4)nc1C(=O)O (stereo partly drawn)
IC50 [1]: 26 µM | IC50 (Endothelin-1 receptor): 0.44 µM

Structure (SMILES): Cc1oc([C@@H](Cc2cn(C)c3ccccc23)NC(=O)[C@H](CC(C)C)NC(=O)n2ccc3ccccc32)nc1C(=O)O
IC50 [1]: 12 µM | IC50 (Endothelin-1 receptor): 0.058 µM

Structure (SMILES): Cc1c(C(=O)O)nc([C@@H](Cc2c[nH]c3ccccc23)NC(=O)[C@H](CC(C)C)NC(=O)N2CCCCCC2)n1C
IC50 [1]: > 100 µM

Structure (SMILES): Cc1[nH]c([C@@H](Cc2c[nH]c3ccccc23)NC(=O)[C@H](CC(C)C)NC(=O)NCc2ccccc2)nc1C(=O)O
IC50 [1]: > 100 µM | IC50 (Endothelin-1 receptor): 2.1 µM

Structure (SMILES): Cc1oc([C@@H](Cc2cn(C)c3ccccc23)NC(=O)[C@H](CC(C)C)NC(=O)NC2CCCCCC2)nc1C(=O)O
IC50 [1]: 75 µM | IC50 (Endothelin-1 receptor): 0.4 µM

Structure (SMILES): Cc1oc([C@@H](Cc2cn(C)c3ccccc23)NC(=O)[C@H](CC(C)C)NC(=O)Nc2ccccn2)nc1C(=O)O
IC50 [1]: 66 µM | IC50 (Endothelin-1 receptor): 0.074 µM

Structure (SMILES): Cc1oc([C@@H](Cc2c[nH]c3ccccc23)NC(=O)[C@H](CC(C)C)NS(=O)(=O)N2CCCCCC2)nc1C(=O)O
IC50 [1]: > 100 µM | IC50 (Endothelin-1 receptor): > 100 µM

Structure (SMILES): Cc1c(C(=O)O)nc([C@@H](Cc2c[nH]c3ccccc23)NC(=O)[C@H](CC(C)C)NC(=O)N2CCCCCC2)n1Cc1ccccc1
IC50 [1]: > 100 µM

Second part, the compound after the results:

IC50 [1]: 55 µM | IC50 (Endothelin-1 receptor): 0.73 µM
Structure (SMILES): CCn1cc(C[C@@H](NC(=O)[C@H](CC(C)C)NC(=O)NC2CCCCC2)c2nc(C(=O)O)c(C)[nH]2)c2ccccc21

IC50 [1]: 19 µM | IC50 (Endothelin-1 receptor): 0.9 µM
Structure (SMILES): Cc1oc([C@@H](Cc2cn(C)c3ccccc23)NC(=O)[C@H](CC(C)C)NC(=O)NC23CC4CC(CC(C4)C2)C3)nc1C(=O)O

IC50 [1]: > 100 µM | IC50 (Endothelin-1 receptor): > 100 µM
Structure (SMILES): Cc1[nH]c([C@@H](Cc2c[nH]c3ccccc23)NC(=O)[C@H](CC(C)C)NS(=O)(=O)N2CCCCCC2)nc1C(=O)O

IC50 [1]: > 100 µM
Structure (SMILES): Cc1[nH]c([C@@H](Cc2cn(C)c3ccccc23)NC(=O)[C@H](CC(C)C)NC(=O)N2CCCCCC2)nc1C(=O)O

IC50 [1]: > 100 µM | IC50 (Endothelin-1 receptor): 2.9 µM
Structure (SMILES): Cc1oc([C@@H](Cc2c[nH]c3ccccc23)NC(=O)[C@H](CC(C)C)NC(=O)N2CCCCCC2)nc1C(=O)NO

IC50 [1]: > 100 µM | IC50 (Endothelin-1 receptor): 3 µM
Structure (SMILES): CCN(CC)C(=O)N[C@@H](CC(C)C)C(=O)N[C@H](Cc1c[nH]c2ccccc12)c1nc(C(=O)O)c(C)o1

IC50 [1]: > 100 µM | IC50 (Endothelin-1 receptor): 0.96 µM
Structure (SMILES): Cc1oc([C@@H](Cc2cn(C)c3ccccc23)NC(=O)[C@H](CC(C)C)NC(=O)NC2CCCC(C)C2)nc1C(=O)O (stereo partly drawn)

IC50 [1]: > 100 µM | IC50 (Endothelin-1 receptor): 3.55 µM
Structure (SMILES): Cc1oc([C@@H](Cc2cn(C)c3ccccc23)NC(=O)[C@H](CC(C)C)NC(=O)Nc2c(F)c(F)c(F)c(F)c2F)nc1C(=O)O

IC50 [1]: > 100 µM
Structure (SMILES): Cc1oc([C@@H](Cc2c[nH]c3ccccc23)NC(=O)[C@H](CC(C)C)NC(=O)NC2CCCCC2)nc1C(=O)O

IC50 [1]: 43 µM
Structure (SMILES): CCOC(=O)c1nc([C@@H](Cc2c[nH]c3ccccc23)NC(=O)[C@H](CC(C)C)NC(=O)N2CCCCCC2)oc1C

IC50 [1]: > 100 µM | IC50 (Endothelin-1 receptor): 0.22 µM
Structure (SMILES): Cc1oc([C@@H](Cc2cn(C)c3ccccc23)NC(=O)[C@H](CC(C)C)NC(=O)NC2CCCCC2)nc1C(=O)O

IC50 [1]: > 100 µM | IC50 (Endothelin-1 receptor): 1.9 µM
Structure (SMILES): Cc1oc([C@@H](Cc2cn(C)c3ccccc23)NC(=O)[C@H](CC(C)C)NC(=O)Nc2ccc(F)cc2)nc1C(=O)O
